From patent US11807693B2 (priority 2014, dated 2023)
Where two headings read alike, the source gives them in different places. Starred links: 1 amine or outer side, 2 acyl side, 3 side chain; linkers in the order of their positions; H or OH if unused. Non-standard residues stand in square brackets, D forms with d. Residues, ends and D or L forms follow the SMILES beside them. *: point of attachment. dBip = N[C@H](Cc1ccc(-c2ccccc2)cc1)C(=O)O; Oic = O=C(O)[C@@H]1C[C@@H]2CCCC[C@@H]2N1; Phe(4-Cl) = N[C@@H](Cc1ccc(Cl)cc1)C(=O)O; Phe(4-I) = N[C@@H](Cc1ccc(I)cc1)C(=O)O; γGlu = O=C(O)[C@H](CCC(=O)[*:2])N[*:1]; 2Nal = N[C@@H](Cc1ccc2ccccc2c1)C(=O)O; d(β3hF) = N[C@@H](CC(=O)O)Cc1ccccc1; NMeR = CN[C@@H](CCCNC(=N)N)C(=O)O; Palmitoyl = CCCCCCCCCCCCCCCC(=O)*; Tridecanoyl = CCCCCCCCCCCCC(=O)*; hArg = N=C(N)NCCCC[C@H](N)C(=O)O; Cha = N[C@@H](CC1CCCCC1)C(=O)O; αMeL = CC(C)C[C@](C)(N)C(=O)O; αMeP = C[C@@]1(C(=O)O)CCCN1; Pip = O=C(O)[C@@H]1CCCCN1; β3hS = N[C@@H](CO)CC(=O)O; Ac6c = NC1(C(=O)O)CCCCC1; Nle = CCCC[C@H](N)C(=O)O; Orn = NCCC[C@H](N)C(=O)O; AEEA = NCCOCCOCC(=O)O; Aib = CC(C)(N)C(=O)O

Columns and labels:
[1] = biological target: T1, human APJ receptor (Homo sapiens, UniProt P35414); assay: [35S] GTPγS assay, human APJ receptor; assay type: biochemical
T1 construct: expressed in transfected cells
T1 sequence (P35414 1-380): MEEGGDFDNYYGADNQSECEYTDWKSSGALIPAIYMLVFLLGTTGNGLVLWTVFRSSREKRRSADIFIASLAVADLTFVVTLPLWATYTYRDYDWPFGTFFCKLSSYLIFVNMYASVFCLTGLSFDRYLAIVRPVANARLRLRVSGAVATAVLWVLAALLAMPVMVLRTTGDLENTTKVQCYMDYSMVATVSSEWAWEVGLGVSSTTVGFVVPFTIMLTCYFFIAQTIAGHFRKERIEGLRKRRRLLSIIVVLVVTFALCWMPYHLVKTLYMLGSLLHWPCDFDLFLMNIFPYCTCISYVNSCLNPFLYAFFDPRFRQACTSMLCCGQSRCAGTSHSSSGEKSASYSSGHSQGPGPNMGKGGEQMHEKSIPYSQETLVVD

[2] = In vitro stability in rat plasma; assay type: in vitro ADME
How it was run: (§1)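 Apelin peptides were spiked at 5 μM final into rat plasma, liver homogenate or kidney homogenate and incubated at 37° C. for up to 4 hr. Aliquots were quenched with MeOH containing internal standard, centrifuged, and supernatants analyzed by high resolution LC-MS.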

[3] = In vitro stability in rat kidney homogenate; assay type: in vitro ADME; conditions: rat, tissue homogenate
How it was run: as §1

[4] = In vitro stability in rat liver homogenate; assay type: in vitro ADME; conditions: tissue homogenate
How it was run: as §1

[5] = biological target: T2, rat APJ receptor (Rattus norvegicus, UniProt Q9JHG3); assay: [35S] GTPγS assay, rat APJ receptor; assay type: biochemical
T2 construct: expressed in transfected cells
T2 sequence (Q9JHG3 1-377): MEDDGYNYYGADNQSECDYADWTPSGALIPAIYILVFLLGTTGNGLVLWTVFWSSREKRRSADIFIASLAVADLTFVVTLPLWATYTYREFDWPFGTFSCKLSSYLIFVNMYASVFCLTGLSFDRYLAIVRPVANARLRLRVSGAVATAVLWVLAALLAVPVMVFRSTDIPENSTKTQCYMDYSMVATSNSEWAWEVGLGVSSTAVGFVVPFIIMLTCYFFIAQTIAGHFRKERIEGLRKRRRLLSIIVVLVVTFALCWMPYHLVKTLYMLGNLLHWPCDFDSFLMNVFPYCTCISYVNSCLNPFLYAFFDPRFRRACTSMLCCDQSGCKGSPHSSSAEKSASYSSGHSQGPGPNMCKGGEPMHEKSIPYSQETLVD
Experimental: The membranes were incubated with modified peptides in the assay buffer. […] Bound [^35S] GTPγS was separated from free radiolabel by filtration. The filter bound radioactivity was determined by liquid scintillation counting.

[6] = Table 16, read-out: EC50 Rat APJ Receptor
[7] = rat APJ receptor, read-out: EC50 Rat APJ Receptor

SMILES	EC50 [1] [nM]	remaining at 4 h, 5 μM [2] [%]	remaining at 4 h, 5 μM [3] [%]	remaining at 4 h, 5 μM [4] [%]	EC50 [5, 6] [nM]	EC50 [5, 7] [nM]
CCCC[C@H](NC(=O)[C@@H]1C[C@@H]2CCCC[C@@H]2N1C(=O)CNC(=O)[C@H](CCCCN)NC(=O)[C@H](Cc1c[nH]cn1)NC(=O)[C@H](CO)NC(=O)[C@H](CC1CCCCC1)NC(=O)[C@H](CCCCNC(=N)N)NC(=O)[C@@H]1CCCN1C(=O)[C@H](CCCNC(=N)N)NC(=O)[C@H](CCC(N)=O)NC(=O)[C@H](CCCNC(=N)N)NC(C)=O)C(=O)N1CCC[C@H]1C(=O)N[C@@H](Cc1ccc(Cl)cc1)C(=O)O [compound 17] (Ac-RQRP[hArg][Cha]SHKG[Oic][Nle]P[Phe(4-Cl)]-OH)	0.171	–	–	–	–	–
CC(=O)N[C@@H](CCCCNC(=N)N)C(=O)N[C@@H](CCCCNC(=N)N)C(=O)N[C@@H](CCC(N)=O)C(=O)N[C@H](CCCNC(=N)N)C(=O)N1CCC[C@H]1C(=O)N(C)[C@@H](CCCNC(=N)N)C(=O)N[C@@H](CC1CCCCC1)C(=O)N[C@@H](CO)C(=O)N[C@@H](Cc1c[nH]cn1)C(=O)N[C@@H](CCCCN)C(=O)NCC(=O)N1[C@H](C(=O)N[C@@H](Cc2ccc(I)cc2)C(=O)N2CCC[C@H]2C(=O)N[C@H](Cc2ccc(-c3ccccc3)cc2)C(=O)O)C[C@@H]2CCCC[C@@H]21 [compound 22] (Ac-[hArg][hArg]Q[dR]P[NMeR][Cha]SHKG[Oic][Phe(4-I)]P[dBip]-OH)	1.52	–	–	–	–	–
CCCC[C@H](NC(=O)[C@@H]1CCCN1C(=O)CNC(=O)[C@H](CCCCN)NC(=O)[C@H](Cc1c[nH]cn1)NC(=O)[C@H](CO)NC(=O)[C@H](CC1CCCCC1)NC(=O)[C@H](CCCCNC(=N)N)NC(=O)[C@@H]1CCCN1C(=O)[C@H](CCCNC(=N)N)NC(=O)[C@H](CCC(N)=O)NC(=O)[C@H](CCCCNC(=N)N)NC(=O)[C@H](CCCCNC(=N)N)NC(=O)[C@H](Cc1ccccc1)NC(=O)[C@H](CCCN)NC(C)=O)C(=O)N[C@@H](Cc1ccc2ccccc2c1)C(=O)O [compound 49] (Ac-[Orn]F[hArg][hArg]QRP[hArg][Cha]SHKGP[Nle][2Nal]-OH)	0.159	–	–	–	–	–
CCCC[C@H](NC(=O)[C@@H]1C[C@@H]2CCCC[C@@H]2N1C(=O)CNC(=O)[C@H](CCCCN)NC(=O)[C@H](Cc1c[nH]cn1)NC(=O)[C@H](CO)NC(=O)[C@H](CC1CCCCC1)NC(=O)[C@H](CCCNC(=N)N)N(C)C(=O)[C@@H]1CCCN1C(=O)[C@H](CCCCNC(=N)N)NC(=O)[C@H](CCC(N)=O)NC(=O)[C@H](CCCCNC(=N)N)NC(=O)[C@H](CCCCNC(=N)N)NC(C)=O)C(=O)N1CCC[C@H]1C(=O)N[C@@H](Cc1ccc(Cl)cc1)C(=O)O [compound 56] (Ac-[hArg][hArg]Q[hArg]P[NMeR][Cha]SHKG[Oic][Nle]P[Phe(4-Cl)]-OH)	0.176	–	–	–	–	–
CCCCCCCCCCCCC(=O)N[C@@H](CCC(=O)NCCOCCOCC(=O)NCCOCCOCC(=O)N[C@@H](CCC(N)=O)C(=O)N(C)[C@@H](CCCNC(=N)N)C(=O)N[C@@](C)(CC(C)C)C(=O)N[C@@H](CO)C(=O)N[C@@H](Cc1c[nH]cn1)C(=O)N[C@@H](CCCCN)C(=O)NCC(=O)N1[C@H](C(=O)N[C@@H](CCCC)C(=O)N2CCC[C@H]2C(=O)N[C@@H](Cc2ccc(Cl)cc2)C(=O)O)C[C@@H]2CCCC[C@@H]21)C(=O)O [compound 397] ({Tridecanoyl-γGlu-AEEA-AEEA}-Q[NMeR][αMeL]SHKG[Oic][Nle]P[Phe(4-Cl)]-OH)	–	87	1	2	16.5	–
CCCCCCCCCCCCC(=O)N[C@@H](CCC(=O)NCCOCCOCC(=O)NCCOCCOCC(=O)N[C@@H](CCC(N)=O)C(=O)N[C@@H](CCCNC(=N)N)C(=O)N1CCC[C@H]1C(=O)N(C)[C@@H](CCCNC(=N)N)C(=O)N[C@@H](CC(C)C)C(=O)N[C@@H](CO)C(=O)N[C@@H](Cc1c[nH]cn1)C(=O)N[C@@H](CCCCN)C(=O)NCC(=O)N1CCC[C@H]1C(=O)N[C@@H](CCCC)C(=O)N1CCC[C@@]1(C)C(=O)N[C@@H](Cc1ccc(Cl)cc1)C(=O)O)C(=O)O [compound 401]	–	6	3	1	0.351	–
CCCCCCCCCCCCC(=O)N[C@@H](CCC(=O)NCCOCCOCC(=O)NCCOCCOCC(=O)N[C@H](CCC(N)=O)C(=O)N[C@@H](CCCNC(=N)N)C(=O)N1CCC[C@H]1C(=O)N(C)[C@@H](CCCNC(=N)N)C(=O)N[C@@H](CC1CCCCC1)C(=O)N[C@@H](CO)CC(=O)N[C@@H](Cc1c[nH]cn1)C(=O)N[C@@H](CCCCN)C(=O)NCC(=O)N1[C@H](C(=O)N[C@@H](CCCC)C(=O)NC(C)(C)C(=O)N[C@@H](Cc2ccc(Cl)cc2)C(=O)O)C[C@@H]2CCCC[C@@H]21)C(=O)O [compound 500] ({Tridecanoyl-γGlu-AEEA-AEEA}-[dQ]RP[NMeR][Cha][β3hS]HKG[Oic][Nle][Aib][Phe(4-Cl)]-OH)	–	> 90	< 1	13	3.14	–
CCCC[C@H](NC(=O)[C@@H]1CCCN1C(=O)CNC(=O)[C@H](CCCCN)NC(=O)[C@H](Cc1c[nH]cn1)NC(=O)[C@H](CO)NC(=O)[C@](C)(CC(C)C)NC(=O)[C@H](CCCCNC(=N)N)NC(=O)[C@@H]1CCCN1C(=O)[C@@H](CCCNC(=N)N)NC(=O)[C@H](CCC(N)=O)NC(=O)COCCOCCNC(=O)COCCOCCNC(=O)CC[C@H](NC(=O)CCCCC(=O)O)C(=O)O)C(=O)N1CCC[C@H]1C(=O)N[C@@H](Cc1ccc(Cl)cc1)C(=O)O [compound 515]	–	2	6	< 1	–	5.94
CCCCCCCCCCCCC(=O)N[C@@H](CCC(=O)NCCOCCOCC(=O)NCCOCCOCC(=O)N[C@@H](CCCNC(=N)N)C(=O)N[C@@H](CCC(N)=O)C(=O)N[C@@H](CCCC)C(=O)N1CCC[C@H]1C(=O)N[C@@H](CCCCNC(=N)N)C(=O)N[C@@H](CC1CCCCC1)C(=O)N[C@@H](CO)C(=O)N[C@@H](C)C(=O)N[C@@H](CCCCN)C(=O)NCC(=O)N1CCCC[C@H]1C(=O)N[C@@H](CCCC)C(=O)N1CCC[C@H]1C(=O)N[C@@H](Cc1ccc(Cl)cc1)C(=O)O)C(=O)O [compound 564] ({Tridecanoyl-γGlu-AEEA-AEEA}-RQ[Nle]P[hArg][Cha]SAKG[Pip][Nle]P[Phe(4-Cl)]-OH)	–	> 90	< 1	2	1.49	–
CCCCCCCCCCCCCCCC(=O)N[C@@H](CCC(=O)NCCOCCOCC(=O)NCCOCCOCC(=O)N[C@H](CCC(N)=O)C(=O)N[C@@H](CCCNC(=N)N)C(=O)N1CCC[C@H]1C(=O)N(C)[C@@H](CCCNC(=N)N)C(=O)N[C@@H](CC1CCCCC1)C(=O)N[C@@H](CO)C(=O)N[C@@H](Cc1c[nH]cn1)C(=O)N[C@@H](CCCCN)C(=O)NCC(=O)N1[C@H](C(=O)N[C@@H](CCCC)C(=O)N2CCC[C@@]2(C)C(=O)N[C@@H](CC(=O)O)Cc2ccccc2)C[C@@H]2CCCC[C@@H]21)C(=O)O [compound 570] ({Palmitoyl-γGlu-AEEA-AEEA}-[dQ]RP[NMeR][Cha]SHKG[Oic][Nle][αMeP][d(β3hF)]-OH)	–	> 90	11	32	–	19.8
CCCCCCCCCCCCCCCC(=O)N[C@@H](CCC(=O)NCCOCCOCC(=O)NCCOCCOCC(=O)N[C@H](CCC(N)=O)C(=O)N[C@@H](CCCNC(=N)N)C(=O)N1CCC[C@H]1C(=O)N(C)[C@@H](CCCNC(=N)N)C(=O)N[C@@H](CC1CCCCC1)C(=O)N[C@@H](CO)C(=O)N[C@@H](Cc1c[nH]cn1)C(=O)N[C@@H](CCCCN)C(=O)NCC(=O)N1[C@H](C(=O)N[C@@H](CCCC)C(=O)N[C@@H](CC(=O)O)Cc2ccccc2)C[C@@H]2CCCC[C@@H]21)C(=O)O [compound 573] ({Palmitoyl-γGlu-AEEA-AEEA}-[dQ]RP[NMeR][Cha]SHKG[Oic][Nle][d(β3hF)]-OH)	–	79	27	59	–	4.25
CCCCCCCCCCCCCCCC(=O)N[C@@H](CCC(=O)NCCOCCOCC(=O)NCCOCCOCC(=O)N[C@H](CCC(N)=O)C(=O)N[C@@H](CCCNC(=N)N)C(=O)N1CCC[C@H]1C(=O)N(C)[C@@H](CCCNC(=N)N)C(=O)N[C@@H](CC1CCCCC1)C(=O)N[C@@H](CO)C(=O)N[C@@H](Cc1c[nH]cn1)C(=O)N[C@@H](CCCCN)C(=O)NCC(=O)N1[C@H](C(=O)N[C@@H](CCCC)C(=O)NC2(C(=O)N[C@@H](Cc3ccc(Cl)cc3)C(=O)O)CCCCC2)C[C@@H]2CCCC[C@@H]21)C(=O)O [compound 584] ({Palmitoyl-γGlu-AEEA-AEEA}-[dQ]RP[NMeR][Cha]SHKG[Oic][Nle][Ac6c][Phe(4-Cl)]-OH)	–	62	6	77	–	52.2
